According to paper PMC3025922 (BMC Biology, 2010):
Like-named read-outs stand apart in the source and are kept apart here.

Test system: nuclear p27 in LNCaP-S14 cells
Type: cell-based, human
[1] = primary screening, nuclear p27 in LNCaP-S14 cells
[2] = primary screening, S = strong, M = medium, W = weak by Z score

| Structure (SMILES) | hit in primary screen (increased percentage of p27 positive cells) (LNCaP-S14, ~5 to 35 μM, 18 h) | Z score (aver) [1] | Clasf [2] | Clasf | Z score (aver) |
| --- | --- | --- | --- | --- | --- |
| C=CCNC1=C2C[C@@H](C)C[C@H](OC)[C@H](O)[C@@H](C)/C=C(\C)[C@H](OC(N)=O)[C@@H](OC)/C=C\C=C(/C)C(=O)NC(=CC1=O)C2=O [17-N-allylamino-17-demethoxygeldanamycin, reference compound] | identified | – | – | – | – |
| CCC1C=CC=CCC(C)C(O)C(C)(O)C(=O)C(C)C(O)C(C)C(=O)C(C)C(O)C(C)C=CC(=O)OC2C(C)C(CC1)OC1(CCC(C)C(CC(C)O)O1)C2C (centres unmarked) [500B11] | – | 3.61 | M (medium (Z score 3-5)) | – | – |
| CCCCCCc1ccc(O)cc1O [500E16] | – | 3.71 | M (medium (Z score 3-5)) | – | – |
| CC(C)COCC(CN(Cc1ccccc1)c1ccccc1)N1CCCC1.Cl (centres unmarked) [500F12] | – | 5.49 | S (strong (Z score > 5)) | – | – |
| CCN(CC)CCOC(=O)C(c1ccccc1)C1CCCCC1.Cl (centres unmarked) [500G17] | – | 2.62 | W (weak (Z score 2-3) | – | – |
| O=C(O)C1CCCNC1 (centres unmarked) [500H10] | – | – | – | M (key: S: strong (Z score > 5); M: medium (Z score 3-5); W: weak (Z score 2-3) | 3.12 |
| CCN(CC)CCOC(=O)C1(C2CCCCC2)CCCCC1.Cl [500I04] | – | 5.96 | S (strong (Z score > 5)) | – | – |
| Cl.N=C(N)NC(=O)c1nc(Cl)c(N)nc1N [500J04] | – | 2.43 | W (weak (Z score 2-3) | – | – |
| Clc1ccc(CSC(Cn2ccnc2)c2ccc(Cl)cc2Cl)cc1.O=[N+]([O-])O (centres unmarked) [500K22] | – | 3.37 | M (medium (Z score 3-5)) | – | – |
| NCC(O)c1ccc(O)c(O)c1 (centres unmarked) [500L12] | – | 9.42 | S (strong (Z score > 5)) | – | – |
| CN(C)c1ccc(O)c2c1CC1CC3C(N(C)C)C(O)=C(C(N)=O)C(=O)C3(O)C(O)=C1C2=O.Cl (centres unmarked) [501G12] | – | 5.15 | S (strong (Z score > 5)) | – | – |
| Oc1ccc(Cl)cc1Cc1cc(Cl)ccc1O [501G22] | – | 4.38 | M (medium (Z score 3-5)) | – | – |
| C[n+]1cc2c3c(ccc2c2ccc4cc5c(cc4c21)OCO5)OCO3.O=[N+]([O-])[O-] [501I17] | – | 4.78 | M (medium (Z score 3-5)) | – | – |
| COC1CC(CC2CCC(C)C(C(C)C(=O)[O-])O2)OC2(OC(C)(C3CCC(C)(C4OC(C5OC(O)(CO)C(C)CC5C)CC4C)O3)CC2C)C1C.[Na+] (centres unmarked) [501K17] | – | 5.95 | S (strong (Z score > 5)) | – | – |
| CCC1(O)CC(OC2CC(N(C)C)C(OC3CC(O)C(OC4CCC(=O)C(C)O4)C(C)O3)C(C)O2)c2c(cc3c(c2O)C(=O)c2c(O)cccc2C3=O)C1C(=O)OC (centres unmarked) [502B20] | – | 3.61 | M (medium (Z score 3-5)) | – | – |
| CC(C)CC1C(=O)N2CCCC2C2(O)OC(NC(=O)C3C=C4c5cccc6[nH]c(Br)c(c56)CC4N(C)C3)(C(C)C)C(=O)N12.CS(=O)(=O)O (centres unmarked) [502C19] | – | 2.62 | W (weak (Z score 2-3) | – | – |
| Cc1cc(C2CCCCC2)n(O)c(=O)c1.NCCO [502D07] | – | 4.86 | M (medium (Z score 3-5)) | – | – |
| CCCCC(CC)CNC(=N)NC(=N)NCCCCCCNC(=N)NC(=N)NCC(CC)CCCC.Cl (centres unmarked) [502E04] | – | 9.20 | S (strong (Z score > 5)) | – | – |
| CC=C(C(=CC)c1ccc(O)cc1)c1ccc(O)cc1 [502G13] | – | 2.95 | W (weak (Z score 2-3) | – | – |
| CCC(C(=O)[O-])C1CCC(C)C(C(C)C(O)C(C)C(=O)C(CC)C2OC3(C=CC(O)C4(CCC(C)(C5CCC(O)(CC)C(C)O5)O4)O3)C(C)CC2C)O1.[Na+] (centres unmarked) [502H07] | – | 6.22 | S (strong (Z score > 5)) | – | – |

| Structure (SMILES) | hit in primary screen (increased percentage of p27 positive cells) (LNCaP-S14, ~5 to 35 μM, 18 h) | Z score (aver) [1] | Clasf [2] | Clasf | Z score (aver) |
| --- | --- | --- | --- | --- | --- |
| NC(CO)(CO)CO.O=C(c1ccccc1)c1ccc2n1CCC2C(=O)O (centres unmarked) [502J18] | – | 2.67 | W (weak (Z score 2-3) | – | – |
| Cc1ccc(-c2cc(C(F)(F)F)nn2-c2ccc(S(N)(=O)=O)cc2)cc1 [502M15] | – | 2.59 | W (weak (Z score 2-3) | – | – |
| CCCCCc1cc(O)c2c(c1)OC(C)(C)c1ccc(C)cc1-2 [503C05] | – | 5.93 | S (strong (Z score > 5)) | – | – |
| COC12C(COC(N)=O)C3=C(C(=O)C(C)=C(N)C3=O)N1CC1NC12 (centres unmarked) [503O09] | – | – | – | M (key: S: strong (Z score > 5); M: medium (Z score 3-5); W: weak (Z score 2-3) | 4.55 |
| CS(=O)(=O)c1ccc(F)c(N2C(=O)C=CC2=O)c1 [518H15] | – | 7.59 | S (strong (Z score > 5)) | – | – |
| CS(=O)(=O)c1ccc(C=CC(=O)Nc2cccc(C(F)(F)F)c2)cc1 [518N13] | – | 5.55 | S (strong (Z score > 5)) | – | – |
| CS(=O)(=O)c1ccc(C=CC(=O)Nc2ccccn2)cc1 [518N17] | – | 4.22 | M (medium (Z score 3-5)) | – | – |
| CS(=O)(=O)c1ccc2[nH]c(C(=O)N3CCN(c4ncccc4C(F)(F)F)CC3)cc2c1 [519A06] | – | 2.71 | W (weak (Z score 2-3) | – | – |
| Cl.O=C(OC(CCCN1CCOCC1)c1ccc(F)cc1)C(c1ccccc1)c1ccccc1 (centres unmarked) [519B04] | – | 2.10 | W (weak (Z score 2-3) | – | – |
| COc1ccccc1CNC1CC(C)(C)n2cccc21 (centres unmarked) [519F12] | – | 2.47 | W (weak (Z score 2-3) | – | – |
| CCOC(=O)c1cc2cccc(NC(=O)c3ccccc3OC(C)=O)c2[nH]1 [519O17] | – | 9.25 | S (strong (Z score > 5)) | – | – |
| CCN(C(=O)c1ccc(C(C)(C)C)cc1)c1ccc(Sc2nc(C)cc(C)n2)cc1 [519P04] | – | 5.16 | S (strong (Z score > 5)) | – | – |
| CC(C)(C)c1cc2cc(NC(=O)C3CC3)ccc2[nH]1 [520D04] | – | 2.80 | W (weak (Z score 2-3) | – | – |
| CC(C)(C)c1cc2cc(NC(=O)c3cccs3)ccc2[nH]1 [520D16] | – | 3.98 | M (medium (Z score 3-5)) | – | – |
| CC(=O)N1CCC(N(C(=O)C2CC2)c2ccc3c(c2)CCN3C(C)=O)CC1 [520E02] | – | 2.46 | W (weak (Z score 2-3) | – | – |
| CCOC(=O)c1cc2cccc(NS(=O)(=O)c3cccc(C(F)(F)F)c3)c2[nH]1 [520F11] | – | 7.25 | S (strong (Z score > 5)) | – | – |
| CC1CN(C(=O)c2cc(-c3ccc(Cl)cc3)cs2)CC(C)O1 (centres unmarked) [520H18] | – | 6.87 | S (strong (Z score > 5)) | – | – |
| CC(C)(C)c1cc2cc(NC3CCN(C(=O)c4ccccc4Cl)CC3)ccc2[nH]1 [520N14] | – | 2.16 | W (weak (Z score 2-3) | – | – |
| Cc1cc(C)nc(N2CCN(C(=O)C(c3ccccc3)c3ccccc3)CC2)n1 [521H09] | – | 2.35 | W (weak (Z score 2-3) | – | – |
| O=C(Nc1ccccc1)Nc1ccc(SCc2nc(OCC(F)(F)F)cc(OCC(F)(F)F)n2)cc1 [521I09] | – | 3.70 | M (medium (Z score 3-5)) | – | – |

| Structure (SMILES) | hit in primary screen (increased percentage of p27 positive cells) (LNCaP-S14, ~5 to 35 μM, 18 h) | Z score (aver) [1] | Clasf [2] | Clasf | Z score (aver) |
| --- | --- | --- | --- | --- | --- |
| CC(C)(C)c1ccc(S(=O)(=O)Nc2ccc3[nH]c(C(C)(C)C)cc3c2)cc1 [521I15] | – | 7.27 | S (strong (Z score > 5)) | – | – |
| COc1ccc(S(=O)(=O)Nc2ccc3[nH]c(C(C)(C)C)cc3c2)cc1 [521I17] | – | 3.94 | M (medium (Z score 3-5)) | – | – |
| CC(C)(C)c1cc2cc(NS(=O)(=O)c3ccc(Cl)cc3)ccc2[nH]1 [521I19] | – | 9.14 | S (strong (Z score > 5)) | – | – |
| CC(C)(C)c1ccc(C(=O)N2CCC(N(C3CC3)S(=O)(=O)c3cccc(C(F)(F)F)c3)CC2)cc1 [521J08] | – | 2.93 | W (weak (Z score 2-3) | – | – |
| CCCN1CCC(N(C(=O)c2ccc(NC(=O)C(c3ccccc3)c3ccccc3)cc2)C2CC2)CC1 [521L12] | – | 4.02 | M (medium (Z score 3-5)) | – | – |
| Cc1[nH]cnc1-c1ccc(C(F)(F)F)cc1 [522D05] | – | 3.87 | M (medium (Z score 3-5)) | – | – |
| COc1ccccc1CN(C(=O)Nc1ccc(F)cc1F)c1ccc2[nH]c(C(C)(C)C)cc2c1 [522J16] | – | 4.05 | M (medium (Z score 3-5)) | – | – |
| CCC(=O)N(Cc1cccc(Cl)c1)c1ccc2[nH]c(C(C)(C)C)cc2c1 [522J18] | – | 6.59 | S (strong (Z score > 5)) | – | – |
| COc1ccccc1NC(=O)N(Cc1cccc(Cl)c1)c1ccc2[nH]c(C(C)(C)C)cc2c1 [522L04] | – | 4.02 | M (medium (Z score 3-5)) | – | – |
| O=C(C(c1ccccc1)c1ccccc1)N(Cc1ccc(Cl)cc1)Cc1ccc2cc[nH]c2c1 [522N04] | – | 2.29 | W (weak (Z score 2-3) | – | – |
| COc1ccc(S(=O)(=O)N(Cc2ccc(Cl)cc2)Cc2ccc3cc[nH]c3c2)cc1 [522N08] | – | 3.74 | M (medium (Z score 3-5)) | – | – |
| COc1ccc(S(=O)(=O)Nc2cccc3cc(C(=O)NCc4ccc(Cl)cc4)[nH]c23)cc1 [522N16] | – | 5.29 | S (strong (Z score > 5)) | – | – |
| CCN(CC)c1ccc(NCN2C(=O)c3ccccc3C2=O)c(C)c1 [541E03] | – | 2.75 | W (weak (Z score 2-3) | – | – |
| CCCCc1ccc(NC(C)=O)c(C)c1 [541G02] | – | – | – | S (key: S: strong (Z score > 5); M: medium (Z score 3-5); W: weak (Z score 2-3) | 7.67 |
| O=C(c1ccc(Cl)nc1)N(Cc1ccc(-c2cccs2)s1)C1CC1 [541H08] | – | 2.92 | W (weak (Z score 2-3) | – | – |
| CC(=O)Nc1ccc(S(=O)(=O)N(Cc2ccc3c(c2)CCO3)C2CC2)cc1 [541J07] | – | 3.47 | M (medium (Z score 3-5)) | – | – |
| CCN(C(=S)Nc1cccc(C(F)(F)F)c1)c1ccccc1 [541K01] | – | 4.12 | M (medium (Z score 3-5)) | – | – |
| S=C(NCc1ccccc1)Nc1ccc(Br)cc1 [541M20] | – | 4.62 | M (medium (Z score 3-5)) | – | – |
| CCCCCCSc1nnc(N)s1 [541O08] | – | 8.05 | S (strong (Z score > 5)) | – | – |
| O=C1C(Cl)=C(N2CCC(C(=O)N3CCOCC3)CC2)C(=O)c2ccccc21 [567A03] | – | 6.25 | S (strong (Z score > 5)) | – | – |
